From US9382290B2, “Aptamer-modified polymeric materials for the binding of factors in a wound environment” (KCI LICENSING, INC., priority 2011, dated 2016)
Where no end group is shown, it is not given here. [ ]: non-standard residue; d: D form. AEEA = NCCOCCOCC(=O)O

Tests used:
VEGF [1] = test: VEGF capture by P16-linker-ROCF construct, elution and ELISA; type: binding
Description: C1 was ROCF alone; C2 was ROCF+EMCS−P16; C3 was ROCF−EMCS+P16; C4 was silanated ROCF alone; C5=silanated ROCF+EMCS−P16; C6 was silanated ROCF−EMCS+P16; 51 was 50× Sulfo-EMCS+P16; and S2 was 100× Sulfo-EMCS+P16. W=Final subsequent PBS wash. E1=50 mM Tris, 80 mM NaCl, 250 mM Imidazole, 45 min. […] E1 (right) indicates the amount of VEGF dislodged from the foam and peptide with an […] after the last wash. […] S2 bound 584 pg/mL, whereas C4 bound 321 pg/m. S2 has the highest concentration of EMCS and therefore the most covalently bound P16. […] Data are given as mean±standard deviation.
P16 was conjugated to ROCF, incubated with VEGF, washed stringently, then eluted with an […]. In this experiment, the test group (P16-linker-foam) bound 584 pg/mL, whereas the greatest negative control bound 321 pg/mL. Non-specific binding was expected due to the hydrophobic nature of both the ROCF and the target protein VEGF.
Target sequence in this assay (P15692 207-320 limits assumed): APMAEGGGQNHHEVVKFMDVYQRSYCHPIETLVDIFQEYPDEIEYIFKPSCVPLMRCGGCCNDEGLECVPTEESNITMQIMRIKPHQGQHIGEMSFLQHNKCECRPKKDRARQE

VEGF [2] = test: Binding of P-16 to VEGF (statement)
Target sequence in this assay (P15692 207-311 limits assumed): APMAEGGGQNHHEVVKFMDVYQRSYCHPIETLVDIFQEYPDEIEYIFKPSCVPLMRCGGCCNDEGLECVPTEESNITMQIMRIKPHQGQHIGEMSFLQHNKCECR

PDGF = test: Binding of P-16 to PDGF (statement)
[3] = target: granulocyte macrophage colony stimulating factor (GM-CSF) (Homo sapiens, UniProt P04141); test: GM-CSF capture by P22-modified silylated 30 PHR chitosan foam, elution and ELISA; type: binding; conditions: 333 ng/mL GM-CSF incubated 24 hr; unbound washed off; eluted with imidazole-based buffer E1; 30 PHR chitosan foam silylated with compound 602
Description: FIG. 8: Silylated with compound 602, 30 PHR Chitosan/P-22 captures more granulocyte macrophage colony stimulating factor (GM-CSF). Briefly, 333 ng/mL of GM-CSF was incubated with the samples for 24 hr. The unbound protein was washed off then the samples were eluted with an imidazole-based buffer, E1. The samples were cleaned up via buffer exchange with PBS and quantified by ELISA.
The test procedure used included the steps listed below: All buffers and reagents were prepared in advance, except the Sulfo-EMCS, which was reconstituted immediately before use. See Sulfo-EMCS Product Instructions (Thermo Scientific-Pierce), which is incorporated by reference herein in its entirety. • 1.1. BupH Borate Buffer: Two packs BupH Borate Buffer powderwere added to 1 L DI H2O as per manufacturer's instructions. • 1.2. Conjugation Buffer, BupH Borate Buffer/5 mM EDTA was prepared by dissolving 146 mg EDTA in 500 mL BupH Borate Buffer. • 1.3. Sulfo-EMCS, allowed to warm to RT, was reconstituted immediately before performing the Sulfo-EMCS addition step. […]
• 1.8. • 1.8.1. […] Use the coupons immediately for growth factor binding or transfer the moist coupons to a capped vial and store them at 4° C. until ready for use for no longer than. […] The unbound proteins were washed off then the samples were eluted with an imidazole-based buffer, E1 before a buffer exchange with PBS and quantification via ELISA.

GM-CSF = GM-CSF (Homo sapiens, UniProt P04141); test: GM-CSF capture by P22-linker-ROCF construct, elution and ELISA; type: binding; conditions: upon elution; sample with the most capture peptide vs ROCF alone
Description: FIG. 11 provides elution results for the P22/GM-CSF experiment. P22 was obtained from the Bachem Americas Inc. 2010 peptide catalog. P22 is a GM-CSF antagonist that binds GM-CSF in an inhibitory manner. Briefly, 330 nmol P22 was conjugated to a polyurethane-based ROCF via Sulfo-EMCS chemistry. The P22-linker-foam construct was incubated with 1 μg GM-CSF overnight, washed five times, and subjected to stringent elutions. […] Upon elution, the sample with the most capture peptide, S3, outperformed ROCF alone by 49%. […] Samples S1-S3 all contained peptide-linker-foam with Sulfo-EMCS concentration increasing from S1 to S3 (S1=10× Sulfo-EMCS+P22; S2=25× Sulfo-EMCS+P22 and S3=50× Sulfo-EMCS+P22), C1 was ROCF alone, C2 was Silanated ROCF+EMCS−P22 and C3 was Silanated ROCF−EMCS+P22. There were no positive controls available for this experiment, as no technology has yet been proven to covalently conjugate peptides to polyurethane. However, positive controls were later developed for subsequent experiments based on experimental results. Data are given as mean±standard deviation.
With the -Sil bond, a “capture peptide” was next conjugated to the amino-functionalized ROCF. To do so, Sulfo-EMCS chemistry developed in Example 2 was used to conjugate a commercially available GM-CSF antagonist capture peptide, P22, to ROCF. […] The eluted GM-CSF was quantified via ELISA (FIG. 11). […]

granulocyte macrophage colony stimulating factor (GM-CSF), sequence (P04141 18-144, species assumed): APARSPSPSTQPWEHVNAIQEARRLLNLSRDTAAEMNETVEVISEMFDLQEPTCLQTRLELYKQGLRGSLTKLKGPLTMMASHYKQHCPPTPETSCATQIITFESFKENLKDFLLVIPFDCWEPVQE
GM-CSF, sequence (P04141 18-144, species assumed): as above

binding to VEGF (VEGF [2])	binding to PDGF (PDGF)	GM-CSF captured (eluted, quantified by ELISA) [3] [pg/mL]	more GM-CSF captured than ROCF alone (GM-CSF) [%]	Substance	VEGF bound (elution E1, ELISA) (VEGF [1]; P16 conjugated to silanated ROCF via Sulfo-EMCS, incubated with VEGF, washed, E1 = 50 mM Tris, 80 mM NaCl, 250 mM Imidazole, 45 min) [pg/mL]	more VEGF bound than greatest negative control (silanated ROCF, C4) (VEGF [1]; elution data) [%]
shown to bind	shown to bind			GHQGQHIGQMS-AEEAc-Cys-NH2 (GHQGQHIGQMS[AEEA]C-NH2; N-terminus assumed; SMILES CC[C@H](C)[C@H](NC(=O)[C@H](Cc1c[nH]cn1)NC(=O)[C@H](CCC(N)=O)NC(=O)CNC(=O)[C@H](CCC(N)=O)NC(=O)[C@H](Cc1c[nH]cn1)NC(=O)CN)C(=O)NCC(=O)N[C@@H](CCC(N)=O)C(=O)N[C@@H](CCSC)C(=O)N[C@@H](CO)C(=O)NCCOCCOCC(=O)N[C@@H](CS)C(N)=O; listed as Homo sapiens) [P16, Anti-VEGF peptide designed de novo]	584	82
		299	49	NAIQEARRLLNLSRD (listed as Homo sapiens) [P22, Commercially available anti-GM-CSF peptide (Bachem), GM-CSF antagonist]		
